The values that follow come from patent US20260167632A1, “NICOTINAMIDE DERIVATIVES FOR USE IN TREATING DISORDERS ASSOCIATED WITH KCNK13 ACTIVITY” (Cerevance, Inc., priority 2022, published 2026).

Each structure is given as a SMILES string. Where only a bound is given, the exact number is not on record here.

The assay addresses T1, human KCNK13 (Homo sapiens, UniProt Q9HB14).
T1 construct: expressed in transfected cells
T1 sequence (Q9HB14 1-408): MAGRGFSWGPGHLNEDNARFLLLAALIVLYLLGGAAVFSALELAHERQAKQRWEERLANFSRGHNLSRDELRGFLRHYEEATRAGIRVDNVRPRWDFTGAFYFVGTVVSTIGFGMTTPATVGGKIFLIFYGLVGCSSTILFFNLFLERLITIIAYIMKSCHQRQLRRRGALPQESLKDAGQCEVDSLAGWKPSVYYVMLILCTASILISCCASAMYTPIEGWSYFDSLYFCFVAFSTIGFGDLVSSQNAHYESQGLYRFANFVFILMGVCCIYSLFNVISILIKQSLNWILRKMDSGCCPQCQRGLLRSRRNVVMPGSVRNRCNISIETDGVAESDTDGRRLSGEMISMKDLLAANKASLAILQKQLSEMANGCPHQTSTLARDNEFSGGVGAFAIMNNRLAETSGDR
Briefly: KCNK13 antagonist activity, thallium flux FLIPR assay in HEK 293 cells stably expressing human KCNK13. The assay is classed as cell-based. Conditions: HEK 293 cells stably expressing human KCNK13, Tl+ sensitive dye, compound 15 min before thallium sulfate, ten point curves; read-out: hKCNK13 IC50. As for the experimental part: 4. Biological Efficacy of Compounds of the Invention
KCNK13 antagonist activity was determined by measuring changes in intracellular Thallium (Tl^+) concentrations using a Tl^+ sensitive fluorescent dye. The changes in fluorescent signal were monitored by Fluorescent Imaging Plate Reader (FLIPR™) technology available from Molecular Devices, LLC, US. KCNK13 mediated increases in intracellular Tl^+ concentration were readily detected by addition of a thallium sulfate Stimulus. 24 hours prior to the assay, human embryonic kidney 293 cells (HEK 293 cells) stably expressing human KCNK13 were seeded in cell culture medium in PDL coated black, clear-bottom 384-well plates (commercially available from Corning Inc., 356663) and grown overnight at 37° C., […]. On the day of the assay, cell culture media was removed and cells were loaded with potassium dye (commercially sold by Molecular Devices, LLC, US, R8222) for 1 hour at room temperature in the dark. Test compounds (at 10 point half log concentration response curves from 100 µM) were added to cells for 15 minutes prior to the addition of thallium sulfate to all wells. The IC50 values were determined from ten point concentration response curves. Curves were generated using the average of two wells for each data point.
In general, IC50 refers to the midpoint of a concentration-inhibition curve. In the case of `COc1ncc(F)cc1C(=O)N(C)C(C)c1ccccc1F` (single isomer, unassigned) [Example 5, 5-fluoro-N-(1-(2-fluorophenyl)ethyl)-2-methoxy-N-methylnicotinamide], the IC50 is at most 500 nM.
Then `COc1ncc(F)cc1C(=O)N(C)C(C)c1ccccc1F` (single isomer, unassigned) [Example 6, 5-fluoro-N-(1-(2-fluorophenyl)ethyl)-2-methoxy-N-methylnicotinamide], with at most 500 nM.
The figure for `COc1ncc(F)cc1C(=O)N(C)C(C)c1cccc(F)c1` (single isomer, unassigned) [Example 7, 5-fluoro-N-(1-(3-fluorophenyl)ethyl)-2-methoxy-N-methylnicotinamide] is at most 200 nM; for `COc1ncc(F)cc1C(=O)N(C)C(C)c1cccc(F)c1` (single isomer, unassigned) [Example 8, 5-fluoro-N-(1-(3-fluorophenyl)ethyl)-2-methoxy-N-methylnicotinamide] it is at most 200 nM; for `COc1ncc(F)cc1C(=O)N(C)C1CCc2ccc(F)cc21` (single isomer, unassigned) [Example 9, 5-fluoro-N-(6-fluoro-2,3-dihydro-1H-inden-1-yl)-2-methoxy-N-methylnicotinamide] it is at most 1000 nM.
The figure for `COc1ncc(F)cc1C(=O)N(C)C1CCc2ccc(F)cc21` (single isomer, unassigned) [Example 10, 5-fluoro-N-(6-fluoro-2,3-dihydro-1H-inden-1-yl)-2-methoxy-N-methylnicotinamide] is at most 500 nM.
Take `CCOc1ncc(Cl)cc1C(=O)N(C)C1CCc2ccccc21` (single isomer, unassigned) [Example 12, 5-chloro-N-(2,3-dihydro-1H-inden-1-yl)-2-ethoxy-N-methylnicotinamide]: the concentration for half-maximal inhibition (IC50) is at most 1000 nM.
The figure for `CCOc1ncc(Cl)cc1C(=O)N(C)C1CCc2ccccc21` (single isomer, unassigned) [Example 13, 5-chloro-N-(2,3-dihydro-1H-inden-1-yl)-2-ethoxy-N-methylnicotinamide] is at most 500 nM; for `COc1ncc(F)cc1C(=O)N(C)C1CCOc2ccccc21` (single isomer, unassigned) [Example 14, N-(chroman-4-yl)-5-fluoro-2-methoxy-N-methylnicotinamide] it is at most 500 nM.
With `COc1ncc(F)cc1C(=O)N(C)C1CCOc2ccccc21` (single isomer, unassigned) [Example 15, N-(chroman-4-yl)-5-fluoro-2-methoxy-N-methylnicotinamide], the IC50 was at most 500 nM.
Consider `COc1ncc(F)cc1C(=O)N(C)C1CCc2ccccc21` (single isomer, unassigned) [Example 17, N-(2,3-dihydro-1H-inden-1-yl)-5-fluoro-2-methoxy-N-methylnicotinamide], for which the concentration for half-maximal inhibition (IC50) was at most 500 nM.
The figure for `COc1ncc(Cl)cc1C(=O)N(C)C1CCOc2ccccc21` (single isomer, unassigned) [Example 18, 5-chloro-N-(chroman-4-yl)-2-methoxy-N-methylnicotinamide] is at most 500 nM; for `COc1ncc(Cl)cc1C(=O)N(C)C1CCOc2ccccc21` (single isomer, unassigned) [Example 19, 5-chloro-N-(chroman-4-yl)-2-methoxy-N-methylnicotinamide] it is at most 500 nM.
Then `COc1ncc(Cl)cc1C(=O)N(C)C1CCc2ccc(F)cc21` (single isomer, unassigned) [Example 20, 5-chloro-N-(6-fluoro-2,3-dihydro-1H-inden-1-yl)-2-methoxy-N-methylnicotinamide], with at most 500 nM; and `COc1ncc(Cl)cc1C(=O)N(C)C1CCc2ccc(F)cc21` (single isomer, unassigned) [Example 21, 5-chloro-N-(6-fluoro-2,3-dihydro-1H-inden-1-yl)-2-methoxy-N-methylnicotinamide], with at most 200 nM.
Then `COc1ncc(Cl)cc1C(=O)N(C)C1CCc2ccccc21` (single isomer, unassigned) [Example 22, 5-chloro-N-(2,3-dihydro-1H-inden-1-yl)-2-methoxy-N-methylnicotinamide], with at most 500 nM.
Consider `COc1ncc(Cl)cc1C(=O)N(C)C1CCc2ccccc21` (single isomer, unassigned) [Example 23, 5-chloro-N-(2,3-dihydro-1H-inden-1-yl)-2-methoxy-N-methylnicotinamide], for which the IC50 was at most 500 nM.
Then `COc1ncc(Cl)cc1C(=O)N(C)C1COc2ccccc21` (single isomer, unassigned) [Example 25, 5-chloro-N-(2,3-dihydrobenzofuran-3-yl)-2-methoxy-N-methylnicotinamide], with at most 500 nM.
For `COc1ncc(Cl)cc1C(=O)N(C)C1COc2ccccc21` (single isomer, unassigned) [Example 26, 5-chloro-N-(2,3-dihydrobenzofuran-3-yl)-2-methoxy-N-methylnicotinamide], the 50% inhibitory concentration (IC50) is at most 500 nM.
The figure for `COc1ncc(Cl)cc1C(=O)N(C)C1COc2ccccc21` (single isomer, unassigned) [Example 27, 5-chloro-N-(2,3-dihydrobenzofuran-3-yl)-2-methoxy-N-methylnicotinamide] is at most 500 nM; for `COc1ncc(Cl)cc1C(=O)N(C)C1CCOc2c(F)cccc21` (single isomer, unassigned) [Example 28, 5-chloro-N-(8-fluorochroman-4-yl)-2-methoxy-N-methylnicotinamide] it is at most 500 nM; for `COc1ncc(Cl)cc1C(=O)N(C)C1CCOc2c(F)cccc21` (single isomer, unassigned) [Example 29, 5-chloro-N-(8-fluorochroman-4-yl)-2-methoxy-N-methylnicotinamide] it is at most 500 nM.
Regarding `COc1ncc(F)cc1C(=O)N(C)C1CCOc2c(F)cccc21` (single isomer, unassigned) [Example 30, 5-fluoro-N-(8-fluorochroman-4-yl)-2-methoxy-N-methylnicotinamide], the IC50 is at most 500 nM.
With `COc1ncc(F)cc1C(=O)N(C)C1CCOc2c(F)cccc21` (single isomer, unassigned) [Example 31, 5-fluoro-N-(8-fluorochroman-4-yl)-2-methoxy-N-methylnicotinamide], the IC50 is at most 1000 nM.
Then `COc1ncc(Cl)cc1C(=O)N(C)C1COc2cc(F)ccc21` (single isomer, unassigned) [Example 45, 5-chloro-N-(6-fluoro-2,3-dihydrobenzofuran-3-yl)-2-methoxy-N-methylnicotinamide], with at most 5000 nM.
Then `COc1ncc(Cl)cc1C(=O)N(C)C1COc2cc(F)ccc21` (single isomer, unassigned) [Example 46, 5-chloro-N-(6-fluoro-2,3-dihydrobenzofuran-3-yl)-2-methoxy-N-methylnicotinamide], with at most 1000 nM.
Then `COc1ncc(Cl)cc1C(=O)N(C)C(C)c1cc(F)ccc1C#N` (single isomer, unassigned) [Example 59, 5-chloro-N-(1-(2-cyano-5-fluorophenyl)ethyl)-2-methoxy-N-methylnicotinamide], with at most 500 nM; and `COc1ncc(Cl)cc1C(=O)N(C)C(C)c1cc(F)ccc1C#N` (single isomer, unassigned) [Example 60, 5-chloro-N-(1-(2-cyano-5-fluorophenyl)ethyl)-2-methoxy-N-methylnicotinamide], with at most 5000 nM.
As for `COc1ncc(F)cc1C(=O)N(C)C(C)c1cc(F)ccc1C#N` (single isomer, unassigned) [Example 62, N-(1-(2-cyano-5-fluorophenyl)ethyl)-5-fluoro-2-methoxy-N-methylnicotinamide], the concentration for half-maximal inhibition (IC50) is at most 1000 nM.
For the compound `COc1ncc(F)cc1C(=O)N(C)C(C)c1cc(F)ccc1C#N` (single isomer, unassigned) [Example 63, N-(1-(2-cyano-5-fluorophenyl)ethyl)-5-fluoro-2-methoxy-N-methylnicotinamide], the half-inhibitory concentration (IC50) was at most 1000 nM.
In the case of `COc1ncc(F)cc1C(=O)N(C)C(C)c1ccc(F)cc1C#N` (single isomer, unassigned) [Example 64, N-(1-(2-cyano-4-fluorophenyl)ethyl)-5-fluoro-2-methoxy-N-methylnicotinamide], the IC50 is at most 5000 nM.
The figure for `COc1ncc(F)cc1C(=O)N(C)C(C)c1ccc(F)cc1C#N` (single isomer, unassigned) [Example 65, N-(1-(2-cyano-4-fluorophenyl)ethyl)-5-fluoro-2-methoxy-N-methylnicotinamide] is at most 1000 nM.
The figure for `COc1ncc(Cl)cc1C(=O)N(C)C(C)c1ccc(F)cc1C#N` (single isomer, unassigned) [Example 66, 5-chloro-N-(1-(2-cyano-4-fluorophenyl)ethyl)-2-methoxy-N-methylnicotinamide] is at most 5000 nM.
